# Read-outs that look alike come from different tables or passages of the source.
# What was measured:
# MOPC-315 myeloma [1] = assay: MOPC-315 Myeloma study #3: β-alethine ip day 0 (3 × 10^5 tumor cells); settings: for Animals Surviving: BT 100 ng/kg
# MOPC-315 myeloma [2] = assay: MOPC-315 Myeloma study #2: β-alethine ip day 10 (1 × 10^6 tumor cells); settings: for Mean Tumor Size: 3 mg BT alone
# [3] = test system: MT-1 breast cancer xenograft
smiles,measurement,setting,value
"NCCC(=O)NCCSSCCNC(=O)CCN [BT, β-alethine]",Animals Surviving,MOPC-315 myeloma [1]; day 10,10
same,Animals Surviving,MOPC-315 myeloma [1]; day 11,10
same,Animals Surviving,MOPC-315 myeloma [1]; day 12,10
same,Animals Surviving,MOPC-315 myeloma [1]; day 13,10
same,Animals Surviving,MOPC-315 myeloma [1]; day 14,7
same,Animals Surviving,MOPC-315 myeloma [1]; day 17,0
same,survival prolonged to,"MOPC-315 myeloma [1]; BT 3 mg/kg, control 16 days",18 days
same,Mean Tumor Size,MOPC-315 myeloma [2]; day 10,21.5 mm
same,Mean Tumor Size,MOPC-315 myeloma [2]; day 14,24 mm
same,Mean Tumor Size,MOPC-315 myeloma [2]; day 17,24 mm
same,Mean Tumor Size,MOPC-315 myeloma [2]; day 21,(dead)
same,Animals Surviving,"MOPC-315 myeloma [2]; BT 3 ng/kg, day 10",10
same,Animals Surviving,"MOPC-315 myeloma [2]; BT 3 ng/kg, day 11",10
same,Animals Surviving,"MOPC-315 myeloma [2]; BT 3 ng/kg, day 12",10
same,Animals Surviving,"MOPC-315 myeloma [2]; BT 3 ng/kg, day 13",10
same,Animals Surviving,"MOPC-315 myeloma [2]; BT 3 ng/kg, day 14",7
same,Animals Surviving,"MOPC-315 myeloma [2]; BT 3 ng/kg, day 15",5
same,Animals Surviving,"MOPC-315 myeloma [2]; BT 3 ng/kg, day 16",5
same,Animals Surviving,"MOPC-315 myeloma [2]; BT 3 ng/kg, day 17",4
same,Animals Surviving,"MOPC-315 myeloma [2]; BT 3 ng/kg, day 18",1
same,Animals Surviving,"MOPC-315 myeloma [2]; BT 3 ng/kg, day 19",1
same,Animals Surviving,"MOPC-315 myeloma [2]; BT 3 ng/kg, day 20",1
same,Animals Surviving,"MOPC-315 myeloma [2]; BT 3 ng/kg, day 21",0
same,Animals Surviving,"MOPC-315 myeloma [2]; BT 100 μg/kg, day 10",10
same,Animals Surviving,"MOPC-315 myeloma [2]; BT 100 μg/kg, day 11",9
same,Animals Surviving,"MOPC-315 myeloma [2]; BT 100 μg/kg, day 12",6
same,Animals Surviving,"MOPC-315 myeloma [2]; BT 100 μg/kg, day 13",5
same,Animals Surviving,"MOPC-315 myeloma [2]; BT 100 μg/kg, day 14",5
same,Animals Surviving,"MOPC-315 myeloma [2]; BT 100 μg/kg, day 15",5
same,Animals Surviving,"MOPC-315 myeloma [2]; BT 100 μg/kg, day 16",4
same,Animals Surviving,"MOPC-315 myeloma [2]; BT 100 μg/kg, day 17",4
same,Animals Surviving,"MOPC-315 myeloma [2]; BT 100 μg/kg, day 18",1
same,Animals Surviving,"MOPC-315 myeloma [2]; BT 100 μg/kg, day 19",1
same,Animals Surviving,"MOPC-315 myeloma [2]; BT 100 μg/kg, day 20",0
same,Animals Surviving,"MOPC-315 myeloma [2]; BT 3 mg/kg, day 10",10
same,Animals Surviving,"MOPC-315 myeloma [2]; BT 3 mg/kg, day 11",9
same,Animals Surviving,"MOPC-315 myeloma [2]; BT 3 mg/kg, day 12",6
same,Animals Surviving,"MOPC-315 myeloma [2]; BT 3 mg/kg, day 13",5
same,Animals Surviving,"MOPC-315 myeloma [2]; BT 3 mg/kg, day 14",5
same,Animals Surviving,"MOPC-315 myeloma [2]; BT 3 mg/kg, day 15",5
same,Animals Surviving,"MOPC-315 myeloma [2]; BT 3 mg/kg, day 16",4
same,Animals Surviving,"MOPC-315 myeloma [2]; BT 3 mg/kg, day 17",4
same,Animals Surviving,"MOPC-315 myeloma [2]; BT 3 mg/kg, day 18",1
same,Animals Surviving,"MOPC-315 myeloma [2]; BT 3 mg/kg, day 19",1
same,Animals Surviving,"MOPC-315 myeloma [2]; BT 3 mg/kg, day 20",0
same,Animals Surviving,"MOPC-315 myeloma [2]; BT 30 fg/kg, day 10",10
same,Animals Surviving,"MOPC-315 myeloma [2]; BT 30 fg/kg, day 11",10
same,Animals Surviving,"MOPC-315 myeloma [2]; BT 30 fg/kg, day 12",9
same,Animals Surviving,"MOPC-315 myeloma [2]; BT 30 fg/kg, day 13",7
same,Animals Surviving,"MOPC-315 myeloma [2]; BT 30 fg/kg, day 14",5
same,Animals Surviving,"MOPC-315 myeloma [2]; BT 30 fg/kg, day 15",5
same,Animals Surviving,"MOPC-315 myeloma [2]; BT 30 fg/kg, day 16",1
same,Animals Surviving,"MOPC-315 myeloma [2]; BT 30 fg/kg, day 17",1
same,Animals Surviving,"MOPC-315 myeloma [2]; BT 30 fg/kg, day 18",0
same,Median Tumor Size,"[3]; BT 30 ng/kg every 14 days, day 13",0.080 cm^3
same,Median Tumor Size,"[3]; BT 30 ng/kg every 14 days, day 16",0.104 cm^3
same,Median Tumor Size,"[3]; BT 30 ng/kg every 14 days, day 20",0.176 cm^3
same,Median Tumor Size,"[3]; BT 30 ng/kg every 14 days, day 23",0.202 cm^3
same,Median Tumor Size,"[3]; BT 30 ng/kg every 14 days, day 27",0.250 cm^3
same,Median Tumor Size,"[3]; BT 30 ng/kg every 14 days, day 30",0.294 cm^3
same,Median Tumor Size,"[3]; BT 30 ng/kg every 14 days, day 34",0.298 cm^3
same,Median Tumor Size,"[3]; BT 30 ng/kg every 14 days, day 38",0.426 cm^3
same,Median Tumor Size,"[3]; BT 30 ng/kg every 14 days, day 41",0.429 cm^3
same,Median Tumor Size,"[3]; BT 30 ng/kg every 14 days, day 45",0.419 cm^3
same,RTV,"[3]; BT 30 ng, day 13",1
same,RTV,"[3]; BT 30 ng, day 16",1.4
same,RTV,"[3]; BT 30 ng, day 20",2.1
same,RTV,"[3]; BT 30 ng, day 23",2.3
same,RTV,"[3]; BT 30 ng, day 27",2.8
same,RTV,"[3]; BT 30 ng, day 30",3.4
same,RTV,"[3]; BT 30 ng, day 34",3.8
same,RTV,"[3]; BT 30 ng, day 38",4.5
same,RTV,"[3]; BT 30 ng, day 41",4.9
same,RTV,"[3]; BT 30 ng, day 45",6.0
same,Median Tumor Size,"[3]; BT 30 ug/kg every 14 days, day 13",0.055 cm^3
same,Median Tumor Size,"[3]; BT 30 ug/kg every 14 days, day 16",0.095 cm^3
same,Median Tumor Size,"[3]; BT 30 ug/kg every 14 days, day 20",0.180 cm^3
same,Median Tumor Size,"[3]; BT 30 ug/kg every 14 days, day 23",0.193 cm^3
same,Median Tumor Size,"[3]; BT 30 ug/kg every 14 days, day 27",0.325 cm^3
same,Median Tumor Size,"[3]; BT 30 ug/kg every 14 days, day 30",0.408 cm^3
same,Median Tumor Size,"[3]; BT 30 ug/kg every 14 days, day 34",0.410 cm^3
same,Median Tumor Size,"[3]; BT 30 ug/kg every 14 days, day 38",0.607 cm^3
same,Median Tumor Size,"[3]; BT 30 ug/kg every 14 days, day 41",0.696 cm^3
same,Median Tumor Size,"[3]; BT 30 ug/kg every 14 days, day 45",0.743 cm^3
same,RTV,"[3]; BT 30 ug, day 13",1
same,RTV,"[3]; BT 30 ug, day 16",1.4
same,RTV,"[3]; BT 30 ug, day 20",2.6
same,RTV,"[3]; BT 30 ug, day 23",3.0
same,RTV,"[3]; BT 30 ug, day 27",4.3
same,RTV,"[3]; BT 30 ug, day 30",5.2
same,RTV,"[3]; BT 30 ug, day 34",6.0
same,RTV,"[3]; BT 30 ug, day 38",9.1
same,RTV,"[3]; BT 30 ug, day 41",11.5
same,RTV,"[3]; BT 30 ug, day 45",14.0
same,Median Tumor Size,"[3]; BT 30 fg/kg every 14 days, day 13",0.104 cm^3
same,Median Tumor Size,"[3]; BT 30 fg/kg every 14 days, day 16",0.128 cm^3
same,Median Tumor Size,"[3]; BT 30 fg/kg every 14 days, day 20",0.213 cm^3
same,Median Tumor Size,"[3]; BT 30 fg/kg every 14 days, day 23",0.253 cm^3
same,Median Tumor Size,"[3]; BT 30 fg/kg every 14 days, day 27",0.442 cm^3
same,Median Tumor Size,"[3]; BT 30 fg/kg every 14 days, day 30",0.637 cm^3
same,Median Tumor Size,"[3]; BT 30 fg/kg every 14 days, day 34",1.062 cm^3
same,Median Tumor Size,"[3]; BT 30 fg/kg every 14 days, day 38",1.241 cm^3
same,Median Tumor Size,"[3]; BT 30 fg/kg every 14 days, day 41",1.464 cm^3
same,Median Tumor Size,"[3]; BT 30 fg/kg every 14 days, day 45",1.911 cm^3
same,RTV,"[3]; BT 30 fg, day 13",1
same,RTV,"[3]; BT 30 fg, day 16",1.6
same,RTV,"[3]; BT 30 fg, day 20",3.4
same,RTV,"[3]; BT 30 fg, day 23",4.4
same,RTV,"[3]; BT 30 fg, day 27",7.6
same,RTV,"[3]; BT 30 fg, day 30",9.3
same,RTV,"[3]; BT 30 fg, day 34",11.9
same,RTV,"[3]; BT 30 fg, day 38",16.1
same,RTV,"[3]; BT 30 fg, day 41",18.2
same,RTV,"[3]; BT 30 fg, day 45",19.8

# — patent publication US6762174B1 (priority 1998, dated 2004)
